# Data taken from patent US12084419B2, “Cell metabolism modulating compounds and uses thereof” (CRESCENTA BIOSCIENCES, priority 2020, dated 2024).
# Molecular target: T1, His6 tagged human recombinant FABP4 (Homo sapiens, UniProt P15090)
# T1 construct: purchased Cayman Chemicals 10009549
# Assay: FABP4 TR-FRET assay: displacement of BODIPY FL C12 fatty acid
# Settings: triplicates, inhibition of BODIPY FL C12 binding; for inhibition at 1 µM: 1 μM compound; for inhibition at 10 µM: 10 μM compound
# Outline: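 TR-FRET with a Tb anti-His6 antibody donor and BODIPY FL C12 as acceptor; compounds came from 0.362 and 0.0362 mM DMSO stocks. Protein (83 nM) and antibody (49.6 nM) solutions were premixed 30 min on ice in 25 mM Tris pH 7.4 with γ-globulins, NP-40 and DTT. Incubation was 10 min at room temperature; inhibition came from the 520/615 nm ratio.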
# T1 sequence (P15090 whole entry): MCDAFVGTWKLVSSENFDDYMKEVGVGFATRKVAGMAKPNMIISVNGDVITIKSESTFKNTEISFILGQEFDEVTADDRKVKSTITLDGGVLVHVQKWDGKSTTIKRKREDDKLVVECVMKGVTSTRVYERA
compound,measurement,value
"CCCCCCC1CCCc2c(n(Cc3ccnc(OC)c3)c3c(C(=O)O)cccc23)C1 (stereo not drawn) [7-hexyl-5-[(2-methoxypyridin-4-yl)methyl]-5H,6H,7H,8H,9H,10H-cyclohepta[b]indole-4-carboxylic acid]",inhibition at 1 µM,78.1%
same,inhibition at 10 µM,82.8%
"CCCCCCC1CCCc2c(n(Cc3ccccc3C)c3c(C(=O)O)cccc23)C1 (stereo not drawn) [7-hexyl-5-[(2-methylphenyl)methyl]-5H,6H,7H,8H,9H,10H-cyclohepta[b]indole-4-carboxylic acid]",inhibition at 1 µM,92.7%
same,inhibition at 10 µM,84.2%
"CCCCCCC1CCCc2c(n(Cc3cccc(OC)c3)c3c(C(=O)O)cccc23)C1 (stereo not drawn) [7-hexyl-5-[(3-methoxyphenyl)methyl]-5H,6H,7H,8H,9H,10H-cyclohepta[b]indole-4-carboxylic acid]",inhibition at 10 µM,93.6%
"CCCCCCC1CCCc2c(n(Cc3cccc(C)c3)c3c(C(=O)O)cccc23)C1 (stereo not drawn) [7-hexyl-5-[(3-methylphenyl)methyl]-5H,6H,7H,8H,9H,10H-cyclohepta[b]indole-4-carboxylic acid]",inhibition at 1 µM,98.6%
same,inhibition at 10 µM,94.7%
"CCCCCCC1CCCc2c(n(Cc3ccc(C)cc3)c3c(C(=O)O)cccc23)C1 (stereo not drawn) [7-hexyl-5-[(4-methylphenyl)methyl]-5H,6H,7H,8H,9H,10H-cyclohepta[b]indole-4-carboxylic acid]",inhibition at 1 µM,95.6%
same,inhibition at 10 µM,91.7%
"CCCCCCC1CCCc2c(n(Cc3cccnc3)c3c(C(=O)O)cccc23)C1 (stereo not drawn) [7-hexyl-5-[(pyridin-3-yl)methyl]-5H,6H,7H,8H,9H,10H-cyclohepta[b]indole-4-carboxylic acid]",inhibition at 1 µM,105%
same,inhibition at 10 µM,97.3%
"CCCCCCC1CCCc2c(n(Cc3ccnc(C(F)(F)F)c3)c3c(C(=O)O)cccc23)C1 (stereo not drawn) [7-hexyl-5-{[2-(trifluoromethyl)pyridin-4-yl]methyl}-5H,6H,7H,8H,9H,10H-cyclohepta[b]indole-4-carboxylic acid]",inhibition at 1 µM,87.6%
same,inhibition at 10 µM,94.7%
"CCCCCCC1CCCc2c(n(Cc3cccc(C(F)(F)F)n3)c3c(C(=O)O)cccc23)C1 (stereo not drawn) [7-hexyl-5-{[6-(trifluoromethyl)pyridin-2-yl]methyl}-5H,6H,7H,8H,9H,10H-cyclohepta[b]indole-4-carboxylic acid]",inhibition at 10 µM,79.8%
"CCCCCCC1CCc2c(n(Cc3ccccc3C(N)=O)c3c(C(=O)O)cccc23)C1 (stereo not drawn) [9-[(2-carbamoylphenyl)methyl]-2-hexyl-2,3,4,9-tetrahydro-1H-carbazole-8-carboxylic acid]",inhibition at 1 µM,31.1%
same,inhibition at 10 µM,80.7%
"CCCCCCC1CCc2c(n(Cc3ccccc3C#N)c3c(C(=O)O)cccc23)C1 (stereo not drawn) [9-[(2-cyanophenyl)methyl]-2-hexyl-2,3,4,9-tetrahydro-1H-carbazole-8-carboxylic acid]",inhibition at 1 µM,87.3%
same,inhibition at 10 µM,92.7%
"CCCCCCC1CCc2c(n(Cc3ccccc3F)c3c(C(=O)O)cccc23)C1 (stereo not drawn) [9-[(2-fluorophenyl)methyl]-2-hexyl-2,3,4,9-tetrahydro-1H-carbazole-8-carboxylic acid]",inhibition at 1 µM,81.8%
same,inhibition at 10 µM,84.9%
"CCCCCOC1CCCc2c1n(Cc1cccc(C(N)=O)c1)c1c(C(=O)O)cccc21 (stereo not drawn) [9-[(3-carbamoylphenyl)methyl]-1-(pentyloxy)-2,3,4,9-tetrahydro-1H-carbazole-8-carboxylic acid]",inhibition at 1 µM,81.9%
same,inhibition at 10 µM,100%
"CCC1CCCc2c1n(Cc1cccc(C(N)=O)c1)c1c(C(=O)O)cccc21 (stereo not drawn) [9-[(3-carbamoylphenyl)methyl]-1-ethyl-2,3,4,9-tetrahydro-1H-carbazole-8-carboxylic acid]",inhibition at 1 µM,90.3%
same,inhibition at 10 µM,95.9%
"CCCOC1CCCc2c1n(Cc1cccc(C(N)=O)c1)c1c(C(=O)O)cccc21 (stereo not drawn) [9-[(3-carbamoylphenyl)methyl]-1-propoxy-2,3,4,9-tetrahydro-1H-carbazole-8-carboxylic acid]",inhibition at 1 µM,57.6%
same,inhibition at 10 µM,92%
"NC(=O)c1cccc(Cn2c3c(c4cccc(C(=O)O)c42)CCC(CCc2ccccc2)C3)c1 (stereo not drawn) [9-[(3-carbamoylphenyl)methyl]-2-(2-phenylethyl)-2,3,4,9-tetrahydro-1H-carbazole-8-carboxylic acid]",inhibition at 1 µM,98.4%
same,inhibition at 10 µM,94.1%
"CCC1CCc2c(n(Cc3cccc(C(N)=O)c3)c3c(C(=O)O)cccc23)C1 (stereo not drawn) [9-[(3-carbamoylphenyl)methyl]-2-ethyl-2,3,4,9-tetrahydro-1H-carbazole-8-carboxylic acid]",inhibition at 1 µM,85.5%
same,inhibition at 10 µM,101%
"CCCCCCC1CCc2c(n(Cc3cccc(C(N)=O)c3)c3c(C(=O)O)cccc23)C1 (stereo not drawn) [9-[(3-carbamoylphenyl)methyl]-2-hexyl-2,3,4,9-tetrahydro-1H-carbazole-8-carboxylic acid]",inhibition at 1 µM,92.8%
same,inhibition at 10 µM,90.5%
"CCCCCC1CCc2c(n(Cc3cccc(C(N)=O)c3)c3c(C(=O)O)cccc23)C1 (stereo not drawn) [9-[(3-carbamoylphenyl)methyl]-2-pentyl-2,3,4,9-tetrahydro-1H-carbazole-8-carboxylic acid]",inhibition at 1 µM,75%
same,inhibition at 10 µM,67%
"CCCC1CCc2c(n(Cc3cccc(C(N)=O)c3)c3c(C(=O)O)cccc23)C1 (stereo not drawn) [9-[(3-carbamoylphenyl)methyl]-2-propyl-2,3,4,9-tetrahydro-1H-carbazole-8-carboxylic acid]",inhibition at 1 µM,83.6%
same,inhibition at 10 µM,88%
"CCC1CCc2c(c3cccc(C(=O)O)c3n2Cc2cccc(C(N)=O)c2)C1 (stereo not drawn) [9-[(3-carbamoylphenyl)methyl]-3-ethyl-2,3,4,9-tetrahydro-1H-carbazole-8-carboxylic acid]",inhibition at 1 µM,98.2%
same,inhibition at 10 µM,103%
"CCCCCC1CCc2c(c3cccc(C(=O)O)c3n2Cc2cccc(C(N)=O)c2)C1 (stereo not drawn) [9-[(3-carbamoylphenyl)methyl]-3-pentyl-2,3,4,9-tetrahydro-1H-carbazole-8-carboxylic acid]",inhibition at 1 µM,90.9%
same,inhibition at 10 µM,98.4%
"CCCC1CCc2c(c3cccc(C(=O)O)c3n2Cc2cccc(C(N)=O)c2)C1 (stereo not drawn) [9-[(3-carbamoylphenyl)methyl]-3-propyl-2,3,4,9-tetrahydro-1H-carbazole-8-carboxylic acid]",inhibition at 1 µM,87.3%
same,inhibition at 10 µM,99.2%
"NC(=O)c1cccc(Cn2c3c(c4cccc(C(=O)O)c42)C(CCc2ccccc2)CCC3)c1 (stereo not drawn) [9-[(3-carbamoylphenyl)methyl]-4-(2-phenylethyl)-2,3,4,9-tetrahydro-1H-carbazole-8-carboxylic acid]",inhibition at 1 µM,44.1%
same,inhibition at 10 µM,77.9%
"CCC1CCCc2c1c1cccc(C(=O)O)c1n2Cc1cccc(C(N)=O)c1 (stereo not drawn) [9-[(3-carbamoylphenyl)methyl]-4-ethyl-2,3,4,9-tetrahydro-1H-carbazole-8-carboxylic acid]",inhibition at 1 µM,87%
same,inhibition at 10 µM,102%
"CCCCCC1CCCc2c1c1cccc(C(=O)O)c1n2Cc1cccc(C(N)=O)c1 (stereo not drawn) [9-[(3-carbamoylphenyl)methyl]-4-pentyl-2,3,4,9-tetrahydro-1H-carbazole-8-carboxylic acid]",inhibition at 1 µM,42.6%
same,inhibition at 10 µM,84.4%
"CCCC1CCCc2c1c1cccc(C(=O)O)c1n2Cc1cccc(C(N)=O)c1 (stereo not drawn) [9-[(3-carbamoylphenyl)methyl]-4-propyl-2,3,4,9-tetrahydro-1H-carbazole-8-carboxylic acid]",inhibition at 1 µM,53.9%
same,inhibition at 10 µM,90%
"CCC1CCCc2c1n(Cc1cccc(C(=O)O)c1)c1c(C(=O)O)cccc21 (stereo not drawn) [9-[(3-carboxyphenyl)methyl]-1-ethyl-2,3,4,9-tetrahydro-1H-carbazole-8-carboxylic acid]",inhibition at 1 µM,39.6%
same,inhibition at 10 µM,78.5%
"CCC1CCc2c(n(Cc3cccc(C(=O)O)c3)c3c(C(=O)O)cccc23)C1 (stereo not drawn) [9-[(3-carboxyphenyl)methyl]-2-ethyl-2,3,4,9-tetrahydro-1H-carbazole-8-carboxylic acid]",inhibition at 1 µM,23.5%
same,inhibition at 10 µM,69.2%
"CCCCCCC1CCc2c(n(Cc3cccc(C(=O)O)c3)c3c(C(=O)O)cccc23)C1 (stereo not drawn) [9-[(3-carboxyphenyl)methyl]-2-hexyl-2,3,4,9-tetrahydro-1H-carbazole-8-carboxylic acid]",inhibition at 1 µM,23.9%
same,inhibition at 10 µM,73%
"CCC1CCCc2c1c1cccc(C(=O)O)c1n2Cc1cccc(C(=O)O)c1 (stereo not drawn) [9-[(3-carboxyphenyl)methyl]-4-ethyl-2,3,4,9-tetrahydro-1H-carbazole-8-carboxylic acid]",inhibition at 1 µM,52.1%
same,inhibition at 10 µM,85.4%
"CCCCCOC1CCCc2c1n(Cc1cccc(C#N)c1)c1c(C(=O)O)cccc21 (stereo not drawn) [9-[(3-cyanophenyl)methyl]-1-(pentyloxy)-2,3,4,9-tetrahydro-1H-carbazole-8-carboxylic acid]",inhibition at 1 µM,7.56%
same,inhibition at 10 µM,63.3%
"CCC1CCCc2c1n(Cc1cccc(C#N)c1)c1c(C(=O)O)cccc21 (stereo not drawn) [9-[(3-cyanophenyl)methyl]-1-ethyl-2,3,4,9-tetrahydro-1H-carbazole-8-carboxylic acid]",inhibition at 1 µM,44.2%
same,inhibition at 10 µM,87.6%
"N#Cc1cccc(Cn2c3c(c4cccc(C(=O)O)c42)CCC(CCc2ccccc2)C3)c1 (stereo not drawn) [9-[(3-cyanophenyl)methyl]-2-(2-phenylethyl)-2,3,4,9-tetrahydro-1H-carbazole-8-carboxylic acid]",inhibition at 10 µM,92.3%
"CCCCCCC1CCc2c(n(Cc3cccc(C#N)c3)c3c(C(=O)O)cccc23)C1 (stereo not drawn) [9-[(3-cyanophenyl)methyl]-2-hexyl-2,3,4,9-tetrahydro-1H-carbazole-8-carboxylic acid]",inhibition at 1 µM,63.6%
same,inhibition at 10 µM,83.4%
"CCCCCC1CCc2c(n(Cc3cccc(C#N)c3)c3c(C(=O)O)cccc23)C1 (stereo not drawn) [9-[(3-cyanophenyl)methyl]-2-pentyl-2,3,4,9-tetrahydro-1H-carbazole-8-carboxylic acid]",inhibition at 1 µM,60.8%
same,inhibition at 10 µM,77.1%
"CCCC1CCc2c(n(Cc3cccc(C#N)c3)c3c(C(=O)O)cccc23)C1 (stereo not drawn) [9-[(3-cyanophenyl)methyl]-2-propyl-2,3,4,9-tetrahydro-1H-carbazole-8-carboxylic acid]",inhibition at 1 µM,55.6%
same,inhibition at 10 µM,81.4%
